Results as given in US20240216464A1, “IL1RA DERIVED PEPTIDES FOR TREATMENT OF DIABETIC NEPHROPATHY” (SERODUS APS, priority 2021, published 2024).
Entries after “also recorded” stand apart in the source; their conditions may differ. Ends that are not written are not given here.

Tests used:
IL-1R1 = biological target: T1, IL-1R1 (Homo sapiens, UniProt P14778); settings: cited from earlier work
T1 sequence (P14778 18-569): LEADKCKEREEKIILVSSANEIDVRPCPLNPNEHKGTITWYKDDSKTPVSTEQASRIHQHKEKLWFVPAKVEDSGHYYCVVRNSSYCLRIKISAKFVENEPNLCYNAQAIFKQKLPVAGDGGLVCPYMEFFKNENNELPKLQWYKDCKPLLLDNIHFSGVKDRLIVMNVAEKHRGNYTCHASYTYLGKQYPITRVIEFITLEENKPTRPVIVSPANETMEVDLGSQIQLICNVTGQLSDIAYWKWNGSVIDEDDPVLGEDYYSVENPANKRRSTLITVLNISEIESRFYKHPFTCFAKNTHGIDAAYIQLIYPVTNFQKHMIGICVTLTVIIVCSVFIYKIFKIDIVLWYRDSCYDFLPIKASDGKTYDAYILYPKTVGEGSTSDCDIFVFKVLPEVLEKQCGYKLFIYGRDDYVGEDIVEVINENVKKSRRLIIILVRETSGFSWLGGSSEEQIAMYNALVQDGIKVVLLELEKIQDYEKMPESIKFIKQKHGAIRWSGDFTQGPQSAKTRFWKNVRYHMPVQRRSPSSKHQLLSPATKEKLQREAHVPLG

macrophages = settings: downstream of IL-1 receptor activation; cited from earlier work
[1] = test system: Renin AAV Uni-nephrectomized db/db (Renin AAV UNx) mice; assay: Renin AAV uni-nephrectomized db/db mouse model of diabetic nephropathy, 77 days treatment; type: in vivo
Method: 56 female mice (BKS.Cg-Dock7m+/+ Lepradb/db BLKS, 5 weeks of age) were transferred to the Gubra Research animal unit. The animals were group housed until uni-nephrectomies, then single housed. Throughout the habituation and study period the animals were in a light-, temperature- and humidity-controlled room with free access to food and water. All animal experiments were conducted in accordance with Gubra bioethical guidelines, which are fully compliant to internationally accepted principles for the care and use of laboratory animals.
Animals were terminated on day 77; blood was taken for later analysis, body weight was recorded, and spot urine was collected.
SER140 was provided by Phlogo ApS, Copenhagen, Denmark (10 mg/ml miliQ water diluted to the different dose formulations). SER140 is a dendrimer composed of four monomeric peptides each with the sequence SGRKSSKMQA (SEQ ID NO:1), and coupled to a lysine backbone. Vehicle was miliQ:PBS 1:5.
After one week of acclimatization the mice received an IV injection of Renin adenosin-associated virus (AAV). […]
All blood samples were taken from the mice tail in heparinized tubes, plasma was separated and stored at minus 80 C until analysis. Non-fasting BG (blood glucose) was measured using BIOSEN c-line glucose meter (EKF-diagnostics, Germany), blood for HbA1c analysis was immediately suspended in Hemolyzing Reagent and stored until analysis using autoanalyzer Cobas C-111 with commercial kit (Roche Diagnostics, Germany), plasma urea using commercial kits (Roche Diagnostics).
Urine samples were stored at minus 80 C until analysis. Urine for measurement of albumin and creatinine were centrifuged at 2000 g for 2 min prior to analysis Urine albumin was measure using a commercial ELISA kit (Bethyl Laboratories, Inc.), according to the manufacturer's instructions, and urine creatinine was measured using a commercial kit (Roche Diagnostics) on the Cobas c 501 autoanalyzer, according to the manufacturer's instructions. Urinary KIM-1 was measured using a commercial ELISA kit (R&D Systems), according to the manufacturer's instructions.

Substance | receptor binding of IL-1p (IL-1R1) | macrophages liberation / secretion of TNFα (macrophages) | urinary albumin corrected for creatinine (ACR) ([1]; spot urine, day 77, 3, 10 and 20 mg/kg SER140 subcutaneously once daily vs vehicle, FIG. 1 (medians)) | urinary KIM-1 corrected for creatinine (KIM-1/CR) ([1]; spot urine, day 77, 3, 10 and 20 mg/kg SER140 subcutaneously once daily vs vehicle, FIG. 2 (means)) | HbA1c ([1]; vehicle vs SER140 treatment)
SER140: dendrimer composed of four monomeric peptides each with the sequence SGRKSSKMQA (SEQ ID NO:1), coupled to a lysine backbone (also: tetrameric dendrimer: four copies coupled to a lysine backbone) | inhibit | reduce | decreased; also recorded: significantly reduced | decreased; also recorded: significantly reduced | no changes
SGRKSSKMQA (Variant of fragment of IL1RA) [SEQ ID NO:1, 10-amino acid peptide derived from IL1RA] | – | inhibit | – | – | –
